Source: US12612412B2, “Antiviral heterocyclic compounds” (Enanta Pharmaceuticals, Inc., priority 2021, dated 2026)

Legend:
[1] = system: genotype A, "Long" strain RSV; experiment: RSV-A assay (CPE protection in Hep-2 cells, ATPlite readout); format: cell-based, Human respiratory syncytial virus (HRSV); conditions: human respiratory syncytial virus, genotype A “Long” strain RSV, MOI 0.1, CPE protection, read-out: Human RSV-A (“Long”)
Procedure, shortened: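 Protection from RSV-induced cytopathic effect measured by ATP content (ATPlite) after 5-day culture. Infection used genotype A Long virus at MOI 0.1 on 8,000 Hep-2 cells per well, with compound serially diluted 2-fold; values are EC50.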

[2] = system: HMPV clinical isolate TN/1501/A1; experiment: HMPV antiviral assay Method-B (clinical isolate TN/1501/A1 in LLC-MK2 cells, ATP-Lite readout); format: cell-based, Human metapneumovirus (HMPV); conditions: human metapneumovirus, LLC-MK2, 144 h, hMPV WT1501 (clinical isolate TN/1501/A1), 6 days
Method: In vitro HMPV antiviral activity was evaluated using the clinical isolate TN/1501/A1 and LLC-MK2 cells (ATCC #CCL-7), an immortalized kidney epithelial cell line from Macaca mulatta. Compounds were resuspended in dimethyl sulfoxide (DMSO) at 10 mM and added to a 384-well source plate. The compounds were diluted and transferred onto 384-well assay plates using the Echo-650 automated liquid handling system (Beckman Coulter, Indiana). The test compounds were assessed in duplicate at a top concentration of 10 μM followed by 3-fold serial dilutions to give a total of 10 concentration points. DMSO control wells were also included on the assay plates and were either infected or not, acting as positive and negative controls. TN/1501/A1 virus infections were performed in-suspension with LLC-MK2 cells. The cells were washed twice with PBS and removed from the cell-culture flask with 0.25% trypsin-EDTA (Thermo Fisher Scientific, MA). The trypsin-EDTA was inactivated by resuspending in 2% fetal bovine serum (FBS) and OptiMEM (ThermoFisher Scientific, MA) containing 1% penicillin-streptomycin. Cells were pelleted by centrifuging for 5 minutes at 800 rpm, the supernatant was removed, and cells were suspended in PBS plus 100 μg/mL CaCl2). This step was performed twice. Cells were then resuspended in serum-free (SF)-OptiMEM containing 4 μg/mL TPCK-Trypsin (Sigma Aldrich, MO), 1% penicillin-streptomycin (ThermoFisher Scientific, MA) and 100 μg/mL CaCl2). Cells were counted and seeded at a density of 5,000 cells/well, 12.5 μL/well. Virus infections were done at a multiplicity of infection (MOI) of 0.014 with 12.5 μL added per well. SF-OptiMEM, 12.5 μL/well, was added to the appropriate wells to serve as a virus-free negative control for the assay. The final concentration of TPCK-trypsin was 2 μg/mL. Plates were incubated at 37° C., 5% CO2 for 6 days. After 6 days incubation, 12.5 μL of ATP-Lite (PerkinElmer, MA) was added to each well and the raw luminescence values were determined using the Envision 2104 (Perkin Elmer, MA). The average of the raw luminescence values for the cells and virus only positive control wells was subtracted from all conditions tested and the percent cell health was determined by dividing these values by the average of the cells only negative control wells. EC50 values were then calculated by non-linear regression using a four-parameter curve logistic equation. The curve fit model employed was XLFit Dose Response One Site Model 200: y=(A+(B/(1+((x/C)^D)))), where A is the minimum y value, B is the maximum y value, C is the log EC50 value, and D is the slope factor. […] EC50 ranges are as follows: A<0.5 μM; B>0.5 μM.

Row | Compound | EC50 [1] | EC50 [2]
1 | Cc1nn(-c2ccccc2)cc1C(=O)NC[C@](O)(c1cc2c(c(-c3ccc(F)cc3)n1)OC[C@]2(C)C(N)=O)C1CC1 [Example 486] | < 200 nM | > 500 nM
2 | Cc1nc2c(Cl)cc(C(=O)NC[C@](O)(c3cc4c(c(-c5ccc(F)cc5)n3)OC[C@]4(C)C(N)=O)C(F)(F)F)cc2[nH]1 [Example 487] | < 200 nM | > 500 nM
3 | C[C@]1(C(N)=O)COc2c1cc([C@@](O)(CNC(=O)c1ccnc3cc[nH]c13)C(F)(F)F)nc2-c1ccc(F)cc1 [Example 488] | < 200 nM | > 500 nM
4 | C[C@]1(C(N)=O)COc2c1cc([C@@](O)(CNC(=O)c1ccnc3nccn13)C(F)(F)F)nc2-c1ccc(F)cc1 [Example 489] | > 200 nM | > 500 nM
5 | C[C@]1(C(N)=O)COc2c1cc([C@@](O)(CNC(=O)c1cc(OC3CC3)n3nc(C4CC4)cc3c1)C1CC1)nc2-c1ccc(F)c(Cl)c1 [Example 491] | < 200 nM | < 500 nM
6 | Cc1cnc2c(OC(F)F)cc(C(=O)NC[C@](O)(c3cc4c(c(-c5ccc(F)cc5)n3)OC[C@]4(C)C(N)=O)C(F)(F)F)cc2c1 [Example 493] | < 200 nM | < 500 nM
7 | Cc1cnc2c(OC(F)F)cc(C(=O)NC[C@](O)(c3cc4c(c(-c5ccc(F)c(Cl)c5)n3)OC[C@]4(C)C(N)=O)C(F)(F)F)cc2c1 [Example 494] | < 200 nM | < 500 nM
8 | Cc1cnc2c(OC(F)F)cc(C(=O)NC[C@](O)(c3cc4c(c(-c5ccc(F)cc5)n3)OC[C@]4(C)C(N)=O)C3CC3)cc2c1 [Example 495] | < 200 nM | < 500 nM
9 | Cc1cnc2c(OC(F)F)cc(C(=O)NC[C@](O)(c3cc4c(c(-c5ccc(F)c(Cl)c5)n3)OC[C@]4(C)C(N)=O)C3CC3)cc2c1 [Example 496] | < 200 nM | < 500 nM
10 | Cc1cnc2c(OCC(F)F)cc(C(=O)NC[C@](O)(c3cc4c(c(-c5ccc(F)c(Cl)c5)n3)OC[C@]4(C)C(N)=O)C(F)(F)F)cc2c1 [Example 497] | < 200 nM | < 500 nM
11 | Cc1cnc2c(OCC(F)F)cc(C(=O)NC[C@](O)(c3cc4c(c(-c5ccc(F)cc5)n3)OC[C@]4(C)C(N)=O)C3CC3)cc2c1 [Example 498] | < 200 nM | < 500 nM
12 | Cc1cnc2c(OCC(F)F)cc(C(=O)NC[C@](O)(c3cc4c(c(-c5ccc(F)c(Cl)c5)n3)OC[C@]4(C)C(N)=O)C3CC3)cc2c1 [Example 499] | < 200 nM | < 500 nM
13 | Cc1nc2c(Cl)cc(C(=O)NC[C@](O)(c3cc4c(c(-c5ccc(F)c(Cl)c5)n3)OC[C@]4(C)C(N)=O)C3CC3)cc2cc1Cl [Example 500] | < 200 nM | < 500 nM
14 | Cc1cnc2c(OC(F)(F)F)cc(C(=O)NC[C@](O)(c3cc4c(c(-c5ccc(F)cc5)n3)OC[C@]4(C)C(N)=O)C(F)(F)F)cc2c1 [Example 501] | < 200 nM | > 500 nM
15 | Cc1cnc2c(OC(F)(F)F)cc(C(=O)NC[C@](O)(c3cc4c(c(-c5ccc(F)cc5)n3)OC[C@]4(C)C(N)=O)C3CC3)cc2c1 [Example 502] | < 200 nM | < 500 nM
16 | Cc1cnc2c(OC(F)(F)F)cc(C(=O)NC[C@](O)(c3cc4c(c(-c5ccc(F)c(Cl)c5)n3)OC[C@]4(C)C(N)=O)C3CC3)cc2c1 [Example 503] | < 200 nM | < 500 nM
17 | C[C@]1(C(N)=O)COc2c1cc([C@@](O)(CNC(=O)c1cc(OC3CC3)n3nc(C4CC4)cc3c1)C(F)(F)F)nc2-c1ccc2c(c1)OC(F)(F)O2 [Example 504] | < 200 nM | < 500 nM
18 | COc1cc(C(=O)NC[C@](O)(c2cc3c(c(-c4ccc5c(c4)OC(F)(F)O5)n2)OC[C@]3(C)C(N)=O)C(F)(F)F)cc2sc(C)nc12 [Example 505] | < 200 nM | < 500 nM
19 | COc1cc(C(=O)NC[C@](O)(c2cc3c(c(-c4ccc(F)c(F)c4F)n2)OC[C@]3(C)C(N)=O)C(F)(F)F)cc2cc(Cl)c(C)nc12 [Example 506] | < 200 nM | < 500 nM
20 | COc1cc(C(=O)NC[C@](O)(c2cc3c(c(-c4ccc(F)c(F)c4F)n2)OC[C@]3(C)C(N)=O)C(F)(F)F)cc2cc(C3CC3)nn12 [Example 507] | < 200 nM | < 500 nM

Row | Compound | EC50 [1] | EC50 [2]
21 | C[C@]1(C(N)=O)COc2c1cc([C@@](O)(CNC(=O)c1cc(OC3CC3)n3nc(C4CC4)cc3c1)C(F)(F)F)nc2-c1ccc(F)c(F)c1F [Example 508] | < 200 nM | < 500 nM
22 | COc1cc(C(=O)NC[C@](O)(c2cc3c(c(-c4ccc(F)cc4Cl)n2)OC[C@]3(C)C(N)=O)C(F)(F)F)cc2cc(Cl)c(C)nc12 [Example 509] | < 200 nM | < 500 nM
23 | COc1cc(C(=O)NC[C@](O)(c2cc3c(c(-c4ccc(F)cc4Cl)n2)OC[C@]3(C)C(N)=O)C(F)(F)F)cc2cc(C3CC3)nn12 [Example 510] | < 200 nM | < 500 nM
24 | COc1cc(C(=O)NC[C@](O)(c2cc3c(c(-c4ccc(F)c(Br)c4F)n2)OC[C@]3(C)C(N)=O)C2CC2)cc2cc(Br)cnc12 [Example 803] |  | < 500 nM
25 | COc1cc(C(=O)NC[C@](O)(c2cc3c(c(-c4ccc(F)c(Br)c4F)n2)OC[C@]3(C)C(N)=O)C2CC2)cc2cc(Cl)c(C)nc12 [Example 804] |  | < 500 nM
26 | COc1cc(C(=O)NC[C@](O)(c2nc(-c3ccc4c(c3)OC(F)(F)O4)c3c(c2F)[C@](C)(C(N)=O)CO3)C2CC2)cc2cn(C3CC3)nc12 [Example 863] |  | > 500 nM
27 | C[C@@]1(C(N)=O)COc2c(-c3ccc4c(c3)OC(F)(F)O4)nc([C@@](O)(CNC(=O)c3cc(Cl)c4nn(C5CC5)cc4c3)C3CC3)c(F)c21 [Example 864] |  | > 500 nM
28 | COc1cc(C(=O)NC[C@](O)(c2nc(-c3ccc4c(c3)OC(F)(F)O4)c3c(c2F)[C@](C)(C(N)=O)CO3)C2CC2)cc2cn(C3(F)CC3)nc12 [Example 865] |  | > 500 nM
29 | COc1cc(C(=O)NC[C@](O)(c2nc(-c3ccc4c(c3)OC(F)(F)O4)c3c(c2F)[C@](C)(C(N)=O)CO3)C2CC2)cc2cn(C(F)F)nc12 [Example 866] |  | > 500 nM
30 | COc1cc(C(=O)NC[C@](O)(c2nc(-c3ccc4c(c3)OC(F)(F)O4)c3c(c2F)[C@](C)(C(N)=O)CO3)C2CC2)cc2cc(Cl)c(C)nc12 [Example 867] |  | > 500 nM
31 | COc1cc(C(=O)NC[C@](O)(c2nc(-c3cc(Cl)c(F)cc3F)c3c(c2F)[C@](C)(C(N)=O)CO3)C2CC2)cc2cn(C3CC3)nc12 [Example 868] |  | > 500 nM
32 | COc1cc(C(=O)NC[C@](O)(c2nc(-c3ccc4c(c3)OC(F)(F)O4)c3c(c2F)[C@@](C)(C(N)=O)CO3)C2CC2)cc2cc(Br)cnc12 [Example 869] |  | < 500 nM
33 | COc1cc(C(=O)NC[C@](O)(c2nc(-c3ccc4c(c3)OC(F)(F)O4)c3c(c2F)[C@](C)(C(N)=O)CO3)C2CC2)cc2cc(Br)cnc12 [Example 870] |  | > 500 nM
34 | COc1cc(C(=O)NC[C@@](O)(c2cc3c(c(-c4cc(Br)c(F)cc4F)n2)OC[C@]3(C)C(N)=O)C(F)(F)F)cc2cn(C3CC3)nc12 [Example 957] |  | < 500 nM
35 | COc1cc(C(=O)NC[C@](O)(c2cc3c(c(-c4cc(Br)c(F)cc4F)n2)OC[C@]3(C)C(N)=O)C(F)(F)F)cc2cn(C3CC3)nc12 [Example 958] |  | < 500 nM
36 | COc1cc(C(=O)NC[C@@](O)(c2cc3c(c(-c4cccc(Br)c4F)n2)OC[C@]3(C)C(N)=O)C(F)(F)F)cc2cn(C3CC3)nc12 [Example 959] |  | > 500 nM
37 | COc1cc(C(=O)NC[C@](O)(c2cc3c(c(-c4cccc(Br)c4F)n2)OC[C@]3(C)C(N)=O)C(F)(F)F)cc2cn(C3CC3)nc12 [Example 960] |  | < 500 nM
38 | COc1cc(F)c(-c2nc([C@@](O)(CNC(=O)c3cc(OC)c4nn(C5CC5)cc4c3)C(F)(F)F)cc3c2OC[C@]3(C)C(N)=O)c(F)c1 [Example 962] |  | < 500 nM
39 | COc1cc(C(=O)NC[C@](O)(c2cc3c(c(-c4c(F)ccc(Cl)c4F)n2)OC[C@]3(C)C(N)=O)C(F)(F)F)cc2cn(C3CC3)nc12 [Example 963] |  | < 500 nM
40 | COc1cc(C(=O)NC[C@](O)(c2cc3c(c(-c4c(F)ccc(F)c4F)n2)OC[C@]3(C)C(N)=O)C(F)(F)F)cc2cn(C3CC3)nc12 [Example 964] |  | < 500 nM
